Reference: patent publication US8735423B2, “Bicyclic compounds as α4β2 nicotinic acetylcholine receptor ligands” (priority 2009, dated 2014)

Legend:
[1] = biological target: Human or Rat Nicotinic Acetylcholine α4β2 receptor (UniProt P09483+P12390); assay: Binding assay for Human or Rat Nicotinic Acetylcholine α4β2 receptor ([3H] Cytisine); details: [3H] Cytisine 2.5 nM; rat brain frontal cortex or recombinant human cDNA expressed in CHO cells
Experimental: Binding assay for Human or Rat Nicotinic Acetylcholine α4β2 receptor
Compounds can be evaluated according to the following procedures.
Materials and Methods: • Receptor source: Rat brain frontal cortex or recombinant human cDNA expressed in CHO cells • Radioligand: [^3H] Cytisine 15-40 Ci/mmol • Final ligand concentration—[2.5 nM] • Non-specific determinant: Epibatidine-[0.1 μM] • Reference compound: Epibatidine • Positive control: Epibatidine Incubation Conditions:
Increasing concentrations of test compounds or standard were incubated with membrane receptors and radioligand in 120 mM NaCl, 2.5 mM KCl, 1 mM CaCl2, 1 mM MgCl2 and 50 mM TRIS-HCl (pH 7.4) for 60 minutes at room temperature. The reaction was terminated by rapid vacuum filtration onto the glass fiber filters. Radioactivity trapped onto the filters was determined and compared to the control values in order to ascertain any interactions of the test compound(s) with either cloned human or rat receptor binding site.
Literature Reference: Bunnelle W. H., Daanen J. F., Ryther K. B., Schrimpf M. R., Dart M. J., Gelain A., Meyer M. D., Frost J. M., Anderson D. J., Buckley M., Curzon P., Cao Y-J., Puttfarcken P., Searle X., Ji J., Putman C. B., Surowy C., Toma L. and Barlocco D. Structure-Activity Studies and Analgesic Efficacy of N-(3-Pyridinyl)-Bridged Bicyclic Diamines, Exceptionally Potent Agonists at Nicotinic Acetylcholine Receptors. J. Med. Chem. 2007, 50, […].

[2] = tested on: Male Wister rats; assay: Reversal of Formalin Induced Nociception; assay type: in vivo; details: rat, p.o., formalin 5% v/v subplantar
Experimental: Reversal of Formalin Induced Nociception
The anti-nociceptive properties of compounds of this invention were evaluated using a model of pain: the Formalin Induced Nociception model. Male Wister rats (230-280 grams) obtained from N. I. N. (National Institute of Nutrition, Hyderabad, India) was used as experimental animals.
Rats were habituated for 20 minutes in the arena before the experiment was started. Duration of licks, bites and flinches were noted from 0-10 minutes and 20-35 minutes after administration of formalin, subplantar into the right hind paw at concentrations of 5% v/v. 50 μL of water for injection was injected into the right hind paw of the rats of the sham group. Compounds of this invention were administered orally prior to formalin administration.

[3] = biological target: T1, recombinant human α4β2 nicotinic acetylcholine receptor (Homo sapiens, UniProt P17787+P43681); assay: Determination of IC50 and Kb values, aequorin luminescence assay in CHO cells; assay type: cell-based; details: antagonist mode, fixed concentration of agonist epibatidine, CHO cells, luminescence; read-out: Kb
T1 construct: expressed in transfected cells
T1 sequence (P43681 29-627): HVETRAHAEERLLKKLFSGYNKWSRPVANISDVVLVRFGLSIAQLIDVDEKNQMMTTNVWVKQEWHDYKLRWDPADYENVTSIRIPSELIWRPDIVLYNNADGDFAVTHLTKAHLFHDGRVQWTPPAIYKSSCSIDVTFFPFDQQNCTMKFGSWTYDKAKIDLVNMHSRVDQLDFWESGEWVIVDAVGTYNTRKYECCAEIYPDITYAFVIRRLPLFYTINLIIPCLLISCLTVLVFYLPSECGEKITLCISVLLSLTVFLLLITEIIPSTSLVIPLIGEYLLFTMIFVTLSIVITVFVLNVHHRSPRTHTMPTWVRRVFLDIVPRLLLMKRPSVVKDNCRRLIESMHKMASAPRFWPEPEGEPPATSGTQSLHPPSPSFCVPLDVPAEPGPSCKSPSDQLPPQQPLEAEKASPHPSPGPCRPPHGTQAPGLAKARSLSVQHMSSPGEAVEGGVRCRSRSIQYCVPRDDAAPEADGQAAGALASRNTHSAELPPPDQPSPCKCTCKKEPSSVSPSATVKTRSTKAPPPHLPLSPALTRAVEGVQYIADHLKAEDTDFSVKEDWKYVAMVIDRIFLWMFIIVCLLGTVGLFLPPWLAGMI
T1 sequence (P17787 26-502): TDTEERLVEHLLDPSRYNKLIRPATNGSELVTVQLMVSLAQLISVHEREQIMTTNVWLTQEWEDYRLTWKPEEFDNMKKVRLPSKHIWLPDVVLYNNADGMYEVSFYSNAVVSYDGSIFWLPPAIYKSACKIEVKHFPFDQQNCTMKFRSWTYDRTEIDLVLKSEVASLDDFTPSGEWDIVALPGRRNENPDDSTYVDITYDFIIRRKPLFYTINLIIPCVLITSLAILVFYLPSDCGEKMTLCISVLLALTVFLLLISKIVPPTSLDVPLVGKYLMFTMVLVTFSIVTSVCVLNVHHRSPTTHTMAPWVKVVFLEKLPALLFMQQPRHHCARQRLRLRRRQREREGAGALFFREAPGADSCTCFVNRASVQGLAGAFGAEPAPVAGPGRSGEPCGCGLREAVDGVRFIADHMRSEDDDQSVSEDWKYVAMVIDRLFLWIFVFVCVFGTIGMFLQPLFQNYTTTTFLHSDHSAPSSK
Experimental: Determination of IC50 and Kb Values for Nicotinic Acetylcholine α4β2 Receptor Ligands
A stable CHO cell line expressing recombinant human α4β2 nicotinic acetylcholine receptor transiently expressing aequorin protein was used for cell-based assay. The assay offers a non-radioactive based approach to determine binding of a compound to ligand gated ion channels. In this specific assay, the level of intracellular calcium which is modulated by activation or inhibition of the channel is measured. Both the channel and aequorin genes are expressed at high level under the control of powerful CMV promotor.
The above cells were grown in 96 well clear bottom white plates in Hams F12 medium containing 10% fetal bovine serum (FBS). Prior to the addition of compounds and/or agonist, cells were serum starved for six hours. Coelentarazine (a prosthetic group for aequorin protein) was added in the medium containing 0.1% dialyzed serum and incubated overnight at 27° C. Cells were washed with assay buffer and increasing concentration of the test compound or standard were added to the plate for antagonist mode. A fixed concentration of the agonist (eipbatidine) was injected into the plate and luminescence was measured for 10 seconds. For evaluation of the compound in agonist mode, increasing concentration of the standard or test compound was injected and the luminescence was measured. Luminescence units were plotted against the compound concentrations using Graphpad software. IC50 values of the compounds were defined as the concentration required in reducing the luminescent units by 50%. The Kb values were calculated by feeding the concentration of the agonist used in the assay and its EC50 value in the same software.
Literature References: Karadsheh M. S., Shah M. S., Tang X., Macdonald R. L. and Stitzel J. A. Functional characterization of mouse α4β2 nicotinic acetylcholine receptors stably expressed in HEK293T cells. J. Neurochem. 2004, 91, 1138-1150.

[4] = Rodent Pharmacokinetic Study; details: Wistar, in vivo, Wister rat male
Experimental: Rodent Pharmacokinetic Study
Male wistar rats (230-280 grams) obtained from NIN (National Institute of Nutrition, Hyderabad, India) were used as an experimental animal. Three to five animals were housed in each cage. Animals were kept fasted over night and maintained on a 12 hours light/dark cycle. […]
At each time point blood was collected by jugular vein. Plasma was stored frozen at −20° C. until analysis. The concentrations of the NCE compound in plasma were determined using LC-MS/MS method. Schedule time points: Pre dose 0.25, 0.5, 1, 1.5, 2, 3, 4, 6, 8, 10, 12 and 24 hours after dosing (n=3). The NCE compounds were quantified in plasma by validated LC-MS/MS method using solid phase extraction technique. NCE compounds were quantified in the calibration range of 1-2000 ng/mL in plasma. Study samples were analyzed using calibration samples in the batch and quality control samples spread across the batch. Pharmacokinetic parameters Cmax, Tmax, AUCs, T112 and Bioavailability were calculated by non-compartmental model using software WinNonlin version 5.0.1.

| Structure (SMILES) | Ki [1] [nM] | Dose (reversal of formalin induced nociception) [2] | Kb [3] [nM] | AUC(0-t) ([4]; iv, I.V, 5 mg/kg) [ng·h/mL] | Cmax ([4]; iv, I.V, 5 mg/kg) [ng/mL] | Tmax ([4]; iv, I.V, 5 mg/kg) [min] | half-life ([4]; iv, I.V, 5 mg/kg) [min] | bioavailability ([4]; po, P.O 15 mg/kg vs I.V 5 mg/kg) [%] | AUC(0-t) ([4]; po, P.O, 15 mg/kg) [ng·h/mL] | Cmax ([4]; po, P.O, 15 mg/kg) [ng/mL] | Tmax ([4]; po, P.O, 15 mg/kg) [min] | half-life ([4]; po, P.O, 15 mg/kg) [min] | bioavailability ([4]; po, P.O 5 mg/kg vs I.V 5 mg/kg) [%] | AUC(0-t) ([4]; po, P.O, 5 mg/kg) [ng·h/mL] | Cmax ([4]; po, P.O, 5 mg/kg) [ng/mL] | Tmax ([4]; po, P.O, 5 mg/kg) [min] | half-life ([4]; po, P.O, 5 mg/kg) [min] |
| --- | --- | --- | --- | --- | --- | --- | --- | --- | --- | --- | --- | --- | --- | --- | --- | --- | --- |
| Cl.c1cncc(OCC2CC3CC3N2)c1 (stereo not drawn) [Example 1, 3-(Pyridin-3-yloxymethyl)-2-azabicyclo[3.1.0]hexane hydrochloride] | 7.7 | ≦10 mg/kg, p.o. | 7.1 | 4050 ± 679 | 3180 ± 38 | 4.8 | 116 ± 37.2 | 92 ± 16 | 10900 ± 646 | 7610 ± 1660 | 15 | 251 ± 91.8 | – | – | – | – | – |
| Cl.Cl.Clc1cncc(OCC2CC3CC3N2)c1 (stereo not drawn) [Example 7, 3-(5-Chloropyridin-3-yloxymethyl)-2-azabicyclo[3.1.0]hexane dihydrochloride] | 0.19 | ≦30 mg/kg, p.o. | 17.8 | 2390 ± 196 | 2340 ± 388 | 4.8 | 51.6 ± 1.8 | – | – | – | – | – | 50 ± 13 | 1190 ± 201 | 949 ± 200 | 15 | 64.2 ± 2.4 |
